The record followed here is ChEMBL document CHEMBL3507680, “University of Dundee, Gates Library screen for HepG2 cell viability”.

The nature of the data set: Human HepG2 cell viability assay in 384 well format. As to conditions: HepG2 cells, read-out: Inhibition. Format: toxicity, cell-based. More on the design: dose 125 nL, time 70.5 hour; cytotoxicity at 70.5 h: concentration not given beside the values.
As to `Cc1cccnc1CN1CCN(C(=O)CCn2ccc(=O)[nH]c2=O)CC1`, the cytotoxicity at 70.5 h was -9.8%. In the case of `O=C(CN1CCOC(Cn2cccn2)C1)NCc1ccccn1` (stereo not drawn), the cytotoxicity at 70.5 h was -9.46%.

For the compound `COc1cccc(CNC(C)c2ccc(-n3ccnc3)cc2)c1OC` (stereo not drawn), the cytotoxicity at 70.5 h was -8.35%.

For the compound `O=C(c1ccccc1)N(CC1CC1)c1cccnc1`, the cytotoxicity at 70.5 h was -1.58%. `Cc1cnc(N2CCCC3(CCCN3CC(=O)N(C)C)C2)nc1` (stereo not drawn): the cytotoxicity at 70.5 h came to 12.8%. With `Cc1cccc(C(=O)N2CCCCC2c2nc(C)cs2)n1` (stereo not drawn), the cytotoxicity at 70.5 h was -12.3%. Consider `COCCC(=O)N1CCC2(COCc3c(C)nc(NCC4CC4)nc32)C1` (stereo not drawn), for which the cytotoxicity at 70.5 h was -4.97%. Turning to `COc1ccccc1OCc1cc(C(=O)N2CCC(NC(C)=O)C2)n[nH]1` (stereo not drawn), the cytotoxicity at 70.5 h was found to be 2.49%. As for `Cc1noc(C)c1C(=O)N1CCC2(CC1)c1nc[nH]c1CCN2C`, the cytotoxicity at 70.5 h is -3.9%. Then `CC(C)[C@@H]1CN(C(=O)C2(c3ccccc3)CC2)C[C@H]1C(=O)O`, with -3.69%; and `CCOC(=O)NC(CNC(=O)c1cn(C)cn1)CC(C)C` (stereo not drawn), with -1.97%; and `C[C@@H]1CN(CC(C)(C)N2CCCCC2)C[C@@]1(O)C1CC1`, with -1.88%. Consider `COc1c(C)cnc(CN2CCCC(c3noc(C4CC4)n3)C2)c1C` (stereo not drawn), for which the cytotoxicity at 70.5 h turned out to be 7.81%. In the case of `CCn1ccnc1CN1CCCN(C(=O)Cc2csc(C)n2)CC1` it was -5.98%. `O=C(Cc1nc(-c2ccncc2)n[nH]1)N1CCOCC1`: the cytotoxicity at 70.5 h is -14.8%. In the case of `CCc1ncc(C(=O)N2CC(Oc3ccccc3Cl)C2)cn1`, the cytotoxicity at 70.5 h was 10.7%. In the case of `O=C(c1ccc(O)c(Cl)c1)N1CCN(c2nccs2)CC1` it was -9.18%. As to `Cc1nc(C2CCCN2C(=O)CCc2ccccc2)ncc1C(N)=O` (stereo not drawn), the cytotoxicity at 70.5 h was -11.8%. In the case of `Cc1nc(C2CCCN2CC(=O)NCCc2ccsc2)no1` (stereo not drawn) it was -2.7%. In the case of `CCN(CC1CCCO1)C(=O)Nc1cc(C(N)=O)ccc1OC` (stereo not drawn) it was -5.25%; in that of `Cc1nc(C2CCCN(C(=O)c3cc4c(s3)CCCC4)C2)no1` (stereo not drawn), 5.35%. In the case of `Cc1nc2c(c(=O)n1C)CCN(Cc1cc3cc[nH]c3cn1)CC2` it was 10.6%. As to `Cc1noc(-c2ccnc(N3CCC(N4CCCC4)CC3)c2)n1`, the cytotoxicity at 70.5 h was -8.66%. On to `O=C(N[C@@H]1CN(c2ncccn2)C[C@@H]2CCCO[C@@H]21)c1cnccn1`, for which the cytotoxicity at 70.5 h was 2.24%. For `CN(C)c1cccc(C2CCCN2Cc2nnnn2C2CC2)c1` (stereo not drawn), the cytotoxicity at 70.5 h is -1.65%. In the case of `O=c1cc(CN2CCCC2)nc2n1CCCN(Cc1ccco1)C2`, the cytotoxicity at 70.5 h was -2.44%. Then `CC(=O)Cn1ncc(N2CCOCC2)cc1=O`, with -0.483%.

In the case of `COc1ccc(CNC(=O)CCc2c(C)noc2C)cc1F`, the cytotoxicity at 70.5 h was -12.8%. Regarding `OC(CNCCn1cccn1)COc1cccc(C(F)(F)F)c1` (stereo not drawn), the cytotoxicity at 70.5 h is -1.44%. In the case of `CCc1nccc(CN2CCCC(CNC(=O)c3occc3C)C2)n1` (stereo not drawn) it was -10.1%; in that of `Cc1nc(CN2CCCn3nc(CNC(=O)C4CCC4)cc3C2)co1`, 0.506%.

On to `Cn1cc(C2(C)CN(c3ncccc3C#N)CCO2)cn1` (stereo not drawn), for which the cytotoxicity at 70.5 h amounted to 3.03%. Turning to `COc1cccc(CC(=O)N2CCCN(c3ccnc(C)c3)CC2)c1`, the cytotoxicity at 70.5 h is -3.97%.

`O=C1CCCCCN1CCc1nc(-c2cccnn2)no1`: the cytotoxicity at 70.5 h was -6.78%.

`Cc1nc(C)c(S(=O)(=O)NC(=O)c2cccs2)s1`: the cytotoxicity at 70.5 h was -4.64%. In the case of `Cc1ccc(F)cc1NS(=O)(=O)c1cc2c(c(C(=O)O)c1)OCCO2` it was -5.92%. Take `O=C(c1ccccc1)C1CCN(Cc2cc3c(cc2O)CCC3)CC1`: the cytotoxicity at 70.5 h is 33.9%. `CN(Cc1ccccc1F)C(=O)COC(=O)c1cc(Cl)c[nH]1`: the cytotoxicity at 70.5 h turned out to be 10.9%. In the case of `Cn1nnn(-c2ccc(NS(=O)(=O)c3ccc(F)c(Cl)c3)cc2)c1=O` it was -2.9%; in that of `O=C(O)Cn1nc(C2CC2)c2c(-c3ccc(F)cc3)ccnc21`, -10.6%. Take `Cc1cc(C(=O)N2CCCC3(COCCN(c4ncccn4)C3)C2)[nH]n1` (stereo not drawn): the cytotoxicity at 70.5 h is -6.04%. For the compound `COCCn1c(=O)n(Cc2ccc(Cl)s2)c2cc(C(=O)O)ccc21`, the cytotoxicity at 70.5 h was -10.7%. On to `Cc1ccc(CN2CCC(O)(Cn3nc(-c4cccs4)oc3=O)CC2)o1`, for which the cytotoxicity at 70.5 h is -1.27%. Turning to `CN(C)c1cncc(C2CCCN2S(=O)(=O)c2cn(C)cn2)n1` (stereo not drawn), the cytotoxicity at 70.5 h is 14.9%. With `O=S(=O)(c1cccnc1)N1C[C@@H]2COC[C@]2(CN2CCOCC2)C1`, the cytotoxicity at 70.5 h is -4.52%. Take `CS(=O)(=O)N1CCN(CC(=O)Nc2cccc(Cl)c2)CC1`: the cytotoxicity at 70.5 h is 5.96%. In the case of `O=C(NCCN1CCC(c2cccs2)CC1)c1ccc(F)cc1Cl` it was -3.13%. With `CN(C1CCCCC1)S(=O)(=O)NCC1Cc2ccccc2O1` (stereo not drawn), the cytotoxicity at 70.5 h was -1.4%. With `Cc1nc(CN2CCC3(CC2)CCN(C(=O)c2cscn2)C3)cs1`, the cytotoxicity at 70.5 h was -13.7%. Then `O=C1CCC2(CCCN(C(=O)c3ccoc3)C2)CN1Cc1ccncc1` (stereo not drawn), with -16.8%; and `O=C(C1CCCN1S(=O)(=O)C1CCCC1)N1CCSCC1` (stereo not drawn), with -5.09%. On to `Cc1cc(C)n(C2CCN(Cc3c(-c4cc(C)on4)nn(C)c3Cl)C2)n1` (stereo not drawn), for which the cytotoxicity at 70.5 h was -6.11%.

As to `COCC1COCCC12CCN(S(=O)(=O)c1ccc(C)cc1)CC2` (stereo not drawn), the cytotoxicity at 70.5 h is -4.01%.

As for `CC(O)CN1CCC(CNCc2ccccc2C(F)(F)F)CC1` (stereo not drawn), the cytotoxicity at 70.5 h turned out to be 13.9%. Then `Cc1cnc(C(=O)N2CC[C@H]3[C@@H]2CCC(=O)N3c2cccnc2)cn1`, with -14.6%. For the compound `Cc1cc(CN(C)C2CCN(c3cccc(-c4cscn4)c3)CC2)on1`, the cytotoxicity at 70.5 h was -2.57%.

Regarding `Cc1cccc(CN2CCC3(CCN(c4ccccn4)C3)C2=O)c1` (stereo not drawn), the cytotoxicity at 70.5 h was -11.4%. Regarding `CCN(CC)c1ncccc1CNCc1ccc(Cl)s1`, the cytotoxicity at 70.5 h was -7.77%. As to `O=C(Cc1cccc2ccccc12)N1CCC(Nc2cccnn2)CC1`, the cytotoxicity at 70.5 h is -7.06%. Then `CCOc1ccc(NC(=O)NCC(C)(O)c2cccs2)cc1` (stereo not drawn), with -8.04%. In the case of `CC(C)N1CCC(c2nnc(CN3CCCC3)n2C2CC2)CC1` it was -4.86%. For the compound `CCn1cnnc1CNC(=O)N(C)Cc1ccc2c(c1)OCO2`, the cytotoxicity at 70.5 h was -10.2%. Regarding `Cc1ncc(CC(=O)N2C[C@@H]3CC[C@H](C2)N(CC2CCC2)C3)c(=O)[nH]1`, the cytotoxicity at 70.5 h was -17.8%. In the case of `Cc1nc(C)c(C)c(NCc2cnn3cccnc23)n1`, the cytotoxicity at 70.5 h worked out at 3.17%. `COCCN1CCCC2(CCN(c3ncnc(C)c3C)C2)C1=O` (stereo not drawn): the cytotoxicity at 70.5 h is 15.5%. For the compound `COc1ccc(-n2ccc(C(=O)NCCN3CCCCC3C)n2)cc1` (stereo not drawn), the cytotoxicity at 70.5 h was 7.59%. Then `Cc1ncnc2c1CCN(CC1CCOC1)CC2` (stereo not drawn), with -8.05%. Turning to `CCc1ccc(CN2C[C@H](OCC(=O)N(C)C)[C@H]3COC[C@H]32)o1`, the cytotoxicity at 70.5 h was -0.34%. For `CCCS(=O)(=O)N1CCC2(CC1)CN(CC1CCOC1)c1ccccc12` (stereo not drawn), the cytotoxicity at 70.5 h was found to be 3.95%. Then `CCc1ocnc1C(=O)N1CCC(C2CCN(c3ncccn3)CC2)C1` (stereo not drawn), with 1.07%; and `COc1cccc2c1N(Cc1nc3c(cnn3C)c(=O)[nH]1)CCC2`, with 22.2%; and `FC(F)(F)Sc1ccc(NCc2nnc(C3CC3)o2)cc1`, with 1.88%. For `CC(C)CNC(=O)[C@H]1C[C@@H]2CN(Cc3cccnc3)C[C@H]1O2`, the cytotoxicity at 70.5 h was -2.17%. For the compound `CCN(CC(F)(F)F)C(=O)C1CCCN(Cc2ccno2)C1` (stereo not drawn), the cytotoxicity at 70.5 h was -7.36%. As to `CC(=O)N1CCO[C@@H]2CN(C(=O)NCc3cccnc3)CC[C@@H]2C1`, the cytotoxicity at 70.5 h was -2.08%. For the compound `Cc1cccc2nc(C(=O)N3CCCC[C@]4(C)NC(=O)CCC[C@H]34)cn12`, the cytotoxicity at 70.5 h was -5.3%.

Consider `CCn1nc2c(cc1=O)CN(CC1CCCCO1)CC2` (stereo not drawn), for which the cytotoxicity at 70.5 h stood at 11.3%. In the case of `Cc1ccc(-c2[nH][nH]c(=O)c2CCN)cc1`, the cytotoxicity at 70.5 h is -14.2%. Regarding `O=C(c1cc(C2CCCN(Cc3ccccn3)C2)no1)N1CCCC1` (stereo not drawn), the cytotoxicity at 70.5 h is -1.56%. Regarding `c1cncc(N2CCOCC3(CCCN(Cc4cccs4)C3)C2)c1` (stereo not drawn), the cytotoxicity at 70.5 h stood at 0.445%.

With `CSc1ccccc1C(=O)N(C)Cc1nncn1C(C)C`, the cytotoxicity at 70.5 h is -0.541%. Regarding `Cc1cc(NC(=O)CNCc2csc(-c3cnccn3)n2)ccc1Cl`, the cytotoxicity at 70.5 h is -6.43%. In the case of `O=C(CN(Cc1ccco1)C1CC1)N1CCCCCC1`, the cytotoxicity at 70.5 h was -1.39%. For `Cc1nc(C)c(C(=O)N2Cc3cc(F)ccc3CC2C)o1` (stereo not drawn), the cytotoxicity at 70.5 h is -3.47%.

Consider `Cc1cccc(S(=O)(=O)N2CSCC2C(=O)NC(C)(C)C)c1` (stereo not drawn), for which the cytotoxicity at 70.5 h is -3.48%. With `CC(C)CN1CCCn2nc(CNC(=O)NC(C)(C)C)cc2C1`, the cytotoxicity at 70.5 h was -6.75%.

Regarding `O=C(N1CCCC1)C12CC(CN1Cc1nccs1)C2`, the cytotoxicity at 70.5 h was -9.99%. In the case of `CCC(NC(=O)CC1CCN(C(C)C)CC1)c1cn2cccnc2n1` (stereo not drawn) it was 1.45%; in that of `CC(C)C1CN(C(=O)c2ccsc2)CCS1` (stereo not drawn), -9.62%. Take `CC(=O)N1Cc2ccccc2C[C@H]1C(=O)Nc1ccccn1`: the cytotoxicity at 70.5 h is -12%.

On to `Cc1ccc(CC(=O)N2CCCC(c3n[nH]c4nccnc34)C2)cc1` (stereo not drawn), for which the cytotoxicity at 70.5 h was -1.21%. Turning to `CC(C)(C)[S+]([O-])CCNC(=O)c1csc(NC2CC2)n1` (stereo not drawn), the cytotoxicity at 70.5 h was found to be 12.6%. Consider `Cc1cnn(CCNCC(O)c2ccc(F)c(F)c2)c1` (stereo not drawn), for which the cytotoxicity at 70.5 h came to 3.17%. For the compound `Cn1cc(C(=O)N2CCCC(C(=O)CCc3ccccc3)C2)cn1` (stereo not drawn), the cytotoxicity at 70.5 h was -23.4%. Turning to `Cc1cnn(CC2CCN(CC(O)c3ccc(F)cc3)CC2)c1` (stereo not drawn), the cytotoxicity at 70.5 h was -0.648%. In the case of `COc1ccc(CCC(=O)NCCC2CCCO2)cc1Br` (stereo not drawn) it was -7.13%. Consider `CCN(Cc1nc2c(cnn2C)c(=O)[nH]1)Cc1ccccc1Cl`, for which the cytotoxicity at 70.5 h is 0.498%. With `O=C(NCCNc1ncccn1)C1CCN(c2ncccn2)CC1`, the cytotoxicity at 70.5 h is -10.8%.
